In patent publication US10253027B2, “Aryl lactam kinase inhibitors” (Bristol-Myers Squibb Company, priority 2013, dated 2019):

The compounds below were run against T1, GST-Xa-hAAK1 (Homo sapiens, UniProt Q2M2I8) (assay: AAK1 Kinase Assay). Conditions: IC50 (nM), ATP 22 μM; 3 hours at room temperature; Caliper LabChip 3000.
T1 construct: made in house
Type: biochemical
Experimental: The assays were performed in U-bottom 384-well plates. […] The reactions were initiated by the combination of bacterially expressed, GST-Xa-hAAK1 with substrates and test compounds. The reactions were incubated at room temperature for 3 hours and terminated by adding 60 μl of 35 mM EDTA buffer to each sample. The reactions were analyzed on the Caliper LabChip 3000 (Caliper, Hopkinton, Mass.) by electrophoretic separation of the fluorescent substrate and phosphorylated product. […] Compounds were dissolved at 10 mM in dimethylsulfoxide (DMSO) and evaluated at eleven concentrations. IC50 values were derived by non-linear regression analysis.

T1 sequence (Q2M2I8 whole entry): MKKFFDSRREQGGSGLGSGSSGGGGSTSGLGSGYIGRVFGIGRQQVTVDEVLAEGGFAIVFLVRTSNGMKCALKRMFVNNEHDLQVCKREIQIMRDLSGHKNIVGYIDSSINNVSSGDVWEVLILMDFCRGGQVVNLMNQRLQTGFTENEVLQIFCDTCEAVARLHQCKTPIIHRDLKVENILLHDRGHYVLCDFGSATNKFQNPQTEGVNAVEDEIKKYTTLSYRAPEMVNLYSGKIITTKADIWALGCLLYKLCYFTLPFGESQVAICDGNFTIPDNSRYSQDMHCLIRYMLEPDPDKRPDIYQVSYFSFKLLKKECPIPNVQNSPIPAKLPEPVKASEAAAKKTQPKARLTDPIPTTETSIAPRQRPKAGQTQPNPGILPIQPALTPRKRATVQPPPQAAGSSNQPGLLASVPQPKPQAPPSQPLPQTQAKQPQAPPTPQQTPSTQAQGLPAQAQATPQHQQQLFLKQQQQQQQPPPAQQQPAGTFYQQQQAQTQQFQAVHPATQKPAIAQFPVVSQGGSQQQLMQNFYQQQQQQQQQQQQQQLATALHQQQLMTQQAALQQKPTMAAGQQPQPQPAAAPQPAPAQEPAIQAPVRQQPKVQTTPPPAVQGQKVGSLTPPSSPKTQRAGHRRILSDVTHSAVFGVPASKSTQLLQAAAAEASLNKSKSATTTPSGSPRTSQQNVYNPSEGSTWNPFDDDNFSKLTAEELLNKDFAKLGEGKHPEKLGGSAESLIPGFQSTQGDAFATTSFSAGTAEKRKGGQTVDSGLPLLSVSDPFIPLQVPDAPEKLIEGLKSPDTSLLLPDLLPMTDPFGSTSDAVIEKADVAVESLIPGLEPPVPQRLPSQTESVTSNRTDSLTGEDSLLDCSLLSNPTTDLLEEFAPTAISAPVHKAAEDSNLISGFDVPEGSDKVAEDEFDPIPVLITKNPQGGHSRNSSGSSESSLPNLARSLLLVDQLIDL

Row | Structure (SMILES) | IC50 [nM]
1 | COc1cc(NC(=O)[C@@H](CC(C)C)NCc2ccc(Cl)cc2)ccc1-c1cnco1 [Example 60, (R)-2-((4-Chlorobenzyl)amino)-N-(3-methoxy-4-(oxazol-5-yl)phenyl)-4-methylpentanamide] | 210
2 | COc1cc(NC(=O)[C@H](N)C(C)C)c(F)cc1-c1cnco1 [Example 96, (R)-2-Amino-N-(2-fluoro-5-methoxy-4-(oxazol-5-yl)phenyl)-3-methylbutanamide] | 780
3 | COc1cc(NC(=O)[C@H](N)CC(C)C)ccc1-c1cn[nH]n1 [Example 19, (R)-2-Amino-N-(3-methoxy-4-(2H-1,2,3-triazol-4-yl)phenyl)-4-methylpentanamide] | 56
4 | CC(C)C[C@@H](N)C(=O)Nc1ccc(-c2ccncc2)cc1 [Example 116, (R)-2-Amino-4-methyl-N-(4-(pyridin-4-yl)phenyl)pentanamide] | 25
5 | COc1cc(NC(=O)[C@H](N)C2CCCC2)c(F)cc1-c1cnco1 [Example 100, (R)-2-Amino-2-cyclopentyl-N-(2-fluoro-5-methoxy-4-(oxazol-5-yl)phenyl)acetamide] | 530
6 | O=C(Nc1ccc(-c2ccncc2)cc1)C1NCCCC1C(F)(F)F (mixture of isomers) [Example 120, N-(4-(Pyridin-4-yl)phenyl)-3-(trifluoromethyl)piperidine-2-carboxamide] | 220
7 | CC(C)C[C@@H](N)C(=O)Nc1ccc(-c2cnco2)c(O)c1 [Example 16, (R)-2-Amino-N-(3-hydroxy-4-(oxazol-5-yl)phenyl)-4-methylpentanamide] | 100
8 | CCCC[C@H](N)C(=O)Nc1ccc(-c2cnco2)c(OC)c1 [Example 53, (S)-2-Amino-N-(3-methoxy-4-(oxazol-5-yl)phenyl)hexanamide] | 270
9 | COc1cnccc1-c1ccc(NC(=O)[C@H](N)CC(C)C)cc1 [Example 44, (R)-2-Amino-N-(4-(3-methoxypyridin-4-yl)phenyl)-4-methylpentanamide] | 140
10 | COc1cc(NC(=O)[C@H](N)CC(C)C)c(-c2nn[nH]n2)cc1-c1cnco1 [Example 102, (R)-2-Amino-N-(5-methoxy-4-(oxazol-5-yl)-2-(2H-tetrazol-5-yl)phenyl)-4-methylpentanamide] | 6
11 | CNc1ccc2ncc(-c3ccc(NC(=O)[C@H](N)CC(C)C)cc3OC)n2n1 [Example 49, (R)-2-Amino-N-(3-(methoxy)-4-(6-(methylamino)imidazo[1,2-b]pyridazin-3-yl)phenyl)-4-methylpentanamide] | 90
12 | COc1cc(NC(=O)C2NCCC2C(C)C)ccc1-c1cnco1 (single isomer, unassigned) [Example 38, 3-Isopropyl-N-(3-methoxy-4-(oxazol-5-yl)phenyl)pyrrolidine-2-carboxamide] | 110
13 | COc1cc(NC(=O)C[C@@H](N)C(C)C)ccc1-c1cnco1 [Example 79, (R)-3-Amino-N-(3-methoxy-4-(oxazol-5-yl)phenyl)-4-methylpentanamide] | 130
14 | COc1cc(NC(=O)[C@H](N)CC(C)C)ccc1-c1cn[nH]c1 [Example 24, (R)-2-Amino-N-(3-methoxy-4-(1H-pyrazol-4-yl)phenyl)-4-methylpentanamide] | 19
15 | CC(C)C[C@@H](N)C(=O)Nc1ccc(-c2cnco2)c(-c2ccsc2)c1 [Example 15, (R)-2-Amino-4-methyl-N-(4-(oxazol-5-yl)-3-(thiophen-3-yl)phenyl)pentanamide] | 1370
16 | CCOc1cc(NC(=O)[C@H](N)CC(C)C)ccc1-c1cnco1 [Example 17, (R)-2-Amino-N-(3-ethoxy-4-(oxazol-5-yl)phenyl)-4-methylpentanamide] | 66
17 | CC1CCCCC1C(N)C(=O)Nc1ccc(-c2ccncc2)cc1 (mixture of isomers) [Example 121, 2-Amino-2-(2-methylcyclohexyl)-N-(4-(pyridin-4-yl)phenyl)acetamide] | 140
18 | COc1cc(NC(=O)[C@H](N)CC2CC2)c(F)cc1-c1cnco1 (stereo in doubt) [Example 95, 2-Amino-3-cyclopropyl-N-(2-fluoro-5-methoxy-4-(oxazol-5-yl)phenyl)propanamide] | 420
19 | COc1cc(NC(=O)C(N)CCC(C)C)ccc1-c1cnco1 (stereo not shown) [Example 8, 2-Amino-N-(3-methoxy-4-(oxazol-5-yl)phenyl)-5-methylhexanamide] | 90
20 | COc1cc(NC(=O)[C@@H](CC(C)C)NCc2ccccc2O)ccc1-c1cnco1 [Example 62] | 220
21 | COc1cc(NC(=O)[C@H]2CCCN2)ccc1-c1cnco1 [Example 2, (R)—N-(3-Methoxy-4-(oxazol-5-yl)phenyl)pyrrolidine-2-carboxamide] | 346
22 | COc1cc(NC(=O)[C@H](N)CC(C)C)ccc1-c1ccncn1 [Example 117, (R)-2-Amino-N-(3-methoxy-4-(pyrimidin-4-yl)phenyl)-4-methylpentanamide] | 460

Row | Structure (SMILES) | IC50 [nM]
23 | COc1cc(NC(=O)[C@@H](N)CC(C)C)ccc1-c1cnco1 [Example 5, (S)-2-Amino-N-(3-methoxy-4-(oxazol-5-yl)phenyl)-4-methylpentanamide] | 104
24 | COc1cc(NC(=O)C2NCCC2C(C)C)ccc1-c1cnco1 (single isomer, unassigned) [Example 37, 3-Isopropyl-N-(3-methoxy-4-(oxazol-5-yl)phenyl)pyrrolidine-2-carboxamide] | 8
25 | CNC1(C(=O)Nc2ccc(-c3cnco3)c(OC)c2)CC1 [Example 58, N-(3-Methoxy-4-(oxazol-5-yl)phenyl)-1-(methylamino)cyclopropanecarboxamide] | 4400
26 | CNc1cc(-c2ccc(NC(=O)C(N)CC(C)C)cc2OC)ccn1 (stereo not shown) [Example 48, 2-Amino-N-(3-methoxy-4-(2-(methylamino)pyridin-4-yl)phenyl)-4-methylpentanamide] | 450
27 | COc1cc(NC(=O)[C@H]2C[C@H](F)CN2)ccc1-c1cnco1 [Example 89, (2R,4S)-4-Fluoro-N-(3-methoxy-4-(oxazol-5-yl)phenyl)pyrrolidine-2-carboxamide] | 2000
28 | CC[C@@H](C)[C@@H](N)C(=O)Nc1ccc(-c2cnco2)c(OC)c1 [Example 55, (2R,3R)-2-Amino-N-(3-methoxy-4-(oxazol-5-yl)phenyl)-3-methylpentanamide] | 130
29 | COc1cc(NC(=O)[C@H](N)CC(C)C)c(-c2cnco2)cc1-c1cnco1 [Example 104, (R)-2-Amino-N-(5-methoxy-2,4-bis(oxazol-5-yl)phenyl)-4-methylpentanamide] | 760
30 | COc1cc(NC(=O)[C@@H]2CCCCN2)ccc1-c1cnco1 [Example 73, (S)—N-(3-Methoxy-4-(oxazol-5-yl)phenyl)piperidine-2-carboxamide] | 1500
31 | CC(C)C[C@@H](N)C(=O)Nc1ccc(-c2cnco2)c(C#N)c1 [Example 108, (R)-2-Amino-N-(3-cyano-4-(oxazol-5-yl)phenyl)-4-methylpentanamide] | 47
32 | COc1c(-c2cnco2)cc(Cl)c(NC(=O)[C@H](N)CC(C)C)c1Cl [Example 29, (R)-2-Amino-N-(2,6-dichloro-3-methoxy-4-(oxazol-5-yl)phenyl)-4-methylpentanamide] | 344
33 | COc1cc(NC(=O)[C@H](N)[C@H](C)O)ccc1-c1cnco1 [Example 77, (2R,3S)-2-Amino-3-hydroxy-N-(3-methoxy-4-(oxazol-5-yl)phenyl)butanamide] | 810
34 | COc1cc(NC(=O)C2NCCC2C(C)C)ccc1-c1cnco1 (single isomer, unassigned) [Example 39, 3-Isopropyl-N-(3-methoxy-4-(oxazol-5-yl)phenyl)pyrrolidine-2-carboxamide] | 29
35 | COc1cc(NC(=O)C2NCCC2C(C)C)ccc1-c1cnco1 (single isomer, unassigned) [Example 36, 3-Isopropyl-N-(3-methoxy-4-(oxazol-5-yl)phenyl)pyrrolidine-2-carboxamide] | 48
36 | COc1cc(NC(=O)[C@H](O)CC(C)C)ccc1-c1cnco1 [Example 34, (R)-2-Hydroxy-N-(3-methoxy-4-(oxazol-5-yl)phenyl)-4-methylpentanamide] | 202
37 | CC(C)C[C@@H](N)C(=O)Nc1ccc(-c2cnco2)c(F)c1 [Example 40, (R)-2-Amino-N-(3-fluoro-4-(oxazol-5-yl)phenyl)-4-methylpentanamide] | 460
38 | COc1cc(NC(=O)[C@H](N)CC(C)C)c(C#N)cc1-c1cnco1 [Example 101, (R)-2-Amino-N-(2-cyano-5-methoxy-4-(oxazol-5-yl)phenyl)-4-methylpentanamide] | 25
39 | NC(C(=O)Nc1ccc(-c2ccncc2)cc1)C1CCCCC1C(F)(F)F (mixture of isomers) [Example 122, 2-Amino-N-(4-(pyridin-4-yl)phenyl)-2-(2-(trifluoromethyl)cyclohexyl)acetamide] | 64
40 | COc1cc(NC(=O)[C@H](N)CC2CCCCC2)ccc1-c1cnco1 [Example 56, (R)-2-Amino-3-cyclohexyl-N-(3-methoxy-4-(oxazol-5-yl)phenyl)propanamide] | 950
41 | CC(C)C1CCCNC1C(=O)Nc1ccc(-c2ccncc2)cc1 (mixture of isomers) [Example 119, 3-Isopropyl-N-(4-(pyridin-4-yl)phenyl)piperidine-2-carboxamide] | 33
42 | COc1cc(NC(=O)C(CC(C)C)N2CCC(N)CC2)ccc1-c1cnco1 (stereo not shown) [Example 33, 2-(4-Aminopiperidin-1-yl)-N-(3-methoxy-4-(oxazol-5-yl)phenyl)-4-methylpentanamide] | 2100
43 | COc1cc(NC(=O)[C@@H](CC(C)C)NCc2ccc(C)cc2)ccc1-c1cnco1 [Example 63, (R)—N-(3-Methoxy-4-(oxazol-5-yl)phenyl)-4-methyl-2-((4-methylbenzyl)amino)pentanamide] | 540
